Assay results as given in patent US20110135583A1, “Anionic Isosorbide Derivatives and Their Use (II)” (COGNIS IP […], priority 2009, published 2011).

Experiment: Foam quality and foam volume test of the isosorbide sulfosuccinate
Type: physicochemical
Details: 2.5% active substance in water, stirred to foam under standard conditions
Procedure: The foam quality and foam volume of this surfactant was tested as follows:
The isosorbide sulfosuccinate is dissolved in water at a rate of 2.5% active substance, and stirred to foam under standard conditions. According to a visual evaluation the surfactant of Example 1 has a foam quality of 4-5 on a scale of 1 (small bubbles, high cushion, stable foam) to 5 (large bubbles, unstable foam), and a foam volume equal to 32% of the foam for a standard surfactant (see FIG. 1).

For “Isosorbide Lauroylester Sulfosuccinate [Example 1]”, which foam volume is on record?
Its foam volume is 32 % of the foam for a standard surfactant.

And the foam quality (visual evaluation, scale of 1 (small bubbles, high cushion, stable foam) to 5 (large bubbles, unstable foam))?
The foam quality was 4-5.
